The target in this test is SIK2 (Homo sapiens (Human), UniProt Q9H0K1). The experiment in a line: SIK2 Enzymatic Assay Version 2 (High ATP). The settings on record: 3 mM ATP and 200 μM HDAC5tide final, ADP-Glo Max luminescence. In kind it is biochemical. Put shortly:
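Luminescent ADP-Glo Max read-out: depletion reagent 2 h, then detection reagent 1 h. Before the reaction, compounds were incubated 30 min with enzyme added at 6 nM (twice final concentration), with all steps at room temperature.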
In general terms: ADP-Glo first removes unused ATP, then detects ADP through luciferase.

The term IC50 denotes the concentration that inhibits the measured activity by half.

Chain of SIK2 (Q9H0K1 whole entry, species assumed): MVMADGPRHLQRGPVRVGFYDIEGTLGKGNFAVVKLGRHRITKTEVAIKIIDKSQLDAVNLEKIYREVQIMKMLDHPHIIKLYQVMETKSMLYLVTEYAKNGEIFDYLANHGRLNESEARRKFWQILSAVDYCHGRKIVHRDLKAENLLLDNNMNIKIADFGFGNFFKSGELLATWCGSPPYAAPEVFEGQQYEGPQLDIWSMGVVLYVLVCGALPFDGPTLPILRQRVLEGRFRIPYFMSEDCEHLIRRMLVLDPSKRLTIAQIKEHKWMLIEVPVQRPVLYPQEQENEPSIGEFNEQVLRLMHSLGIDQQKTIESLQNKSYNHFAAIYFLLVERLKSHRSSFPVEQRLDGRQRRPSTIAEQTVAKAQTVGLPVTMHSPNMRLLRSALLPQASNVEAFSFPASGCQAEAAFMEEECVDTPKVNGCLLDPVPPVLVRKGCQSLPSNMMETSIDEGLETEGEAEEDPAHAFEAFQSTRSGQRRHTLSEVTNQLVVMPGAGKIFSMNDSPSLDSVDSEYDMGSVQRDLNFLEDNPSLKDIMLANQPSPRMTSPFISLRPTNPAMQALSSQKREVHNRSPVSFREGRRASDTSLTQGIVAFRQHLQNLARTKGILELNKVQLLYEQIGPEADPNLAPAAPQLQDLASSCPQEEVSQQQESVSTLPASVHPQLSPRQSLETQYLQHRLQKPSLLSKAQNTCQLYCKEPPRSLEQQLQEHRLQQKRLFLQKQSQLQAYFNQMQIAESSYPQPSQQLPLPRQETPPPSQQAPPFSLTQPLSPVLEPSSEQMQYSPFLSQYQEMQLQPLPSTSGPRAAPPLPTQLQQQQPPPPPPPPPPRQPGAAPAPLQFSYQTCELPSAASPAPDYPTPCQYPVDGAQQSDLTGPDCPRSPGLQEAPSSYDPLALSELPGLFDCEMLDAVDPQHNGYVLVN

`Cc1cc(Nc2cc3cc(-c4c(OC[C@@H]5CCO[C@@H]5C)cnn4C)ccn3n2)nc(C)n1` (relative stereo) [Example 295, (2*R, 3*S)—N-(2,6-dimethylpyrimidin-4-yl)-5-[2-methyl-4-[(2-methyltetrahydrofuran-3-yl)methoxy]pyrazol-3-yl]pyrazolo[1,5-a]pyridin-2-amine] showed an IC50 of 24.5 nM.
Consider `Cc1cc(Nc2cc3cc(-c4c(OCC5(F)CCNC5)cnn4C(F)F)ccn3n2)nc(C)n1` (racemic) [Example 101, (RS)-5-[2-(difluoromethyl)-4-[(3-fluoropyrrolidin-3-yl)methoxy]pyrazol-3-yl]-N-(2,6-dimethylpyrimidin-4-yl)pyrazolo[1,5-a]pyridin-2-amine], for which the IC50 amounted to 7.2 nM.
Turning to `Cn1ncc(OC[C@H]2CCN2C[C@H]2CCCO2)c1-c1ccn2nc(NC(=O)C3CC3)cc2c1` [Example 259, N-(5-(1-methyl-4-(((R)-1-(((R)-tetrahydrofuran-2-yl)methyl)azetidin-2-yl)methoxy)-1H-pyrazol-5-yl)pyrazolo[1,5-a]pyridin-2-yl)cyclopropanecarboxamide], the IC50 amounted to 46.5 nM.
`Cc1cc(Nc2cc3cc(-c4c(OC[C@@H]5CCN(C)C5=O)cnn4C)ccn3n2)nc(C)n1` (single isomer, unassigned) [Example 34, (*S)-3-[[5-[2-[(2,6-dimethylpyrimidin-4-yl)amino]pyrazolo[1,5-a]pyridin-5-yl]-1-methyl-pyrazol-4-yl]oxymethyl]-1-methyl-pyrrolidin-2-one]: the IC50 turned out to be 9.2 nM.
Turning to `Cc1ccc(Nc2cc3cc(-c4c(OC[C@H]5CCN5C)cnn4C(F)F)ccn3n2)nn1` [Example 98, 5-[2-(difluoromethyl)-4-[[(2R)-1-methylazetidin-2-yl]methoxy]pyrazol-3-yl]-N-(6-methylpyridazin-3-yl)pyrazolo[1,5-a]pyridin-2-amine], the IC50 was found to be 7.9 nM.
Next, `Cc1cc(Nc2cc3cc(-c4c(OC[C@H]5CCCN5C)cnn4C)ccn3n2)nc(C(F)(F)F)n1` [Example 283, 5-[2-methyl-4-[[(2R)-1-methylpyrrolidin-2-yl]methoxy]pyrazol-3-yl]-N-[6-methyl-2-(trifluoromethyl)pyrimidin-4-yl]pyrazolo[1,5-a]pyridin-2-amine]: 3.4 nM.
For the compound `CN1CC[C@@H]1COc1cnn(C)c1-c1ccn2nc(NC(=O)c3cnn(C)c3)cc2c1` [Example 26, 1-methyl-N-[5-[2-methyl-4-[[(2R)-1-methylazetidin-2-yl]methoxy]pyrazol-3-yl]pyrazolo[1,5-a]pyridin-2-yl]pyrazole-4-carboxamide], the IC50 stood at 319 nM.
The compound `CN1CC[C@@H]1COc1cnn(C)c1-c1ccn2nc(NC(=O)[C@@H]3C[C@@H]3C#N)cc2c1` [Example 475, cis-2-cyano-N-[5-[2-methyl-4-[(1-methylazetidin-2-yl)methoxy]pyrazol-3-yl]pyrazolo[1,5-a]pyridin-2-yl]cyclopropanecarboxamide] showed an IC50 of 51.9 nM.
Next, `[2H]C([2H])([2H])C([2H])([2H])N1CC[C@@H]1COc1cnn(C)c1-c1ccn2nc(NC(=O)C3CC3)cc2c1` [Example 254, N-[5-[2-methyl-4-[[(2R)-1-(1,1,2,2,2-pentadeuterioethyl)azetidin-2-yl]methoxy]pyrazol-3-yl]pyrazolo[1,5-a]pyridin-2-yl]cyclopropanecarboxamide]: 1.5 nM.
Then `CCN1CC[C@@H]1COc1cnn(C)c1-c1ccn2nc(Nc3cnc(C)c(C)n3)cc2c1` [Example 22, (R)—N-(5,6-Dimethylpyrazin-2-yl)-5-(4-((1-ethylazetidin-2-yl)methoxy)-1-methyl-1H-pyrazol-5-yl)pyrazolo[1,5-a]pyridin-2-amine], with < 0.847 nM; and `CCn1ncc(OC[C@@H]2CCNC2)c1-c1ccn2nc(NC(=O)C3CC3)cc2c1` [Example 312, N-[5-[2-ethyl-4-[[(3R)-pyrrolidin-3-yl]methoxy]pyrazol-3-yl]pyrazolo[1,5-a]pyridin-2-yl]cyclopropanecarboxamide], with 44.3 nM.
As for `CN1CC[C@H](Oc2cnn(C)c2-c2ccn3nc(Nc4ccc5c(n4)CCOC5)cc3c2)C1` [Example 280, N-[5-[2-methyl-4-[(3S)-1-methylpyrrolidin-3-yl]oxy-pyrazol-3-yl]pyrazolo[1,5-a]pyridin-2-yl]-7,8-dihydro-5H-pyrano[4,3-b]pyridin-2-amine], 35.8 nM corresponded to half-maximal inhibition (IC50).
Turning to `Cc1onc(O[C@@H]2CCN(C)C3(CCC3)C2)c1-c1ccn2nc(NC(=O)C3CC3)cc2c1` (single isomer, unassigned) [Example 219, (*R)—N-[5-[5-methyl-3-[(9-methyl-9-azaspiro[3.5]nonan-6-yl)oxy]isoxazol-4-yl]pyrazolo[1,5-a]pyridin-2-yl]cyclopropanecarboxamide], the IC50 is 44.3 nM.
The compound `CC(C)N1CC[C@@H]1COc1cnn(C)c1-c1ccn2nc(NC(=O)C3CC3)cc2c1` [Example 53, N-[5-[4-[[(2R)-1-isopropylazetidin-2-yl]methoxy]-2-methyl-pyrazol-3-yl]pyrazolo[1,5-a]pyridin-2-yl]cyclopropanecarboxamide] yielded an IC50 of 68.3 nM.
Take `CCN1CC[C@@H]1COc1cnn(C)c1-c1ccn2nc(Nc3cnc(C(=O)OC)cn3)cc2c1` [Example 311, methyl 5-[[5-[4-[[(2R)-1-ethylazetidin-2-yl]methoxy]-2-methyl-pyrazol-3-yl]pyrazolo[1,5-a]pyridin-2-yl]amino]pyrazine-2-carboxylate]: 1.4 nM corresponded to half-maximal inhibition (IC50).
Compound `Cc1cc(C)c(Nc2cc3cc(-c4c(OC[C@H]5CCN5C)cnn4C)ccn3n2)nn1` [Example 61, N-(4,6-dimethylpyridazin-3-yl)-5-[2-methyl-4-[[(2R)-1-methylazetidin-2-yl]methoxy]pyrazol-3-yl]pyrazolo[1,5-a]pyridin-2-amine] had an IC50 of 1140 nM.
Next, `Cn1ncc(OC[C@@H]2CCNC2)c1-c1ccn2nc(NC(=O)C3CC3)cc2c1` [Example 229, N-[5-[2-methyl-4-[[(3R)-pyrrolidin-3-yl]methoxy]pyrazol-3-yl]pyrazolo[1,5-a]pyridin-2-yl]cyclopropanecarboxamide]: 23.8 nM; `CCN1CC[C@@H]1COc1cnn(C)c1-c1ccn2nc(Nc3ccc(=O)n(C)n3)cc2c1` [Example 170, 6-[[5-[4-[[(2R)-1-ethylazetidin-2-yl]methoxy]-2-methyl-pyrazol-3-yl]pyrazolo[1,5-a]pyridin-2-yl]amino]-2-methyl-pyridazin-3-one]: 0.9 nM.
`Cc1onc(OC[C@H](c2ccccc2F)N(C)C)c1-c1ccn2nc(NC(=O)C3CC3)cc2c1` [Example 324, N-[5-[3-[(2S)-2-(dimethylamino)-2-(2-fluorophenyl)ethoxy]-5-methyl-isoxazol-4-yl]pyrazolo[1,5-a]pyridin-2-yl]cyclopropanecarboxamide] gave an IC50 of 23.8 nM.
As for `Cn1ncc(OC[C@H]2CNCCO2)c1-c1ccn2nc(NC(=O)C3CC3)cc2c1` [Example 6, N-[5-[2-methyl-4-[[(2R)-morpholin-2-yl]methoxy]pyrazol-3-yl]pyrazolo[1,5-a]pyridin-2-yl]cyclopropanecarboxamide], the IC50 stood at 14 nM.
With `C[C@@H]1C[C@H]1C(=O)Nc1cc2cc(-c3c(OC[C@H]4CCN4C)cnn3C)ccn2n1` [Example 14, (1R,2R)-2-methyl-N-[5-[2-methyl-4-[[(2R)-1-methylazetidin-2-yl]methoxy]pyrazol-3-yl]pyrazolo[1,5-a]pyridin-2-yl]cyclopropanecarboxamide], the IC50 came out at 1.7 nM.

The values are drawn from patent US20240174662A1, “SMALL MOLECULE INHIBITORS OF SALT INDUCIBLE KINASES” (Janssen Biotech, Inc., priority 2021, published 2024).
